The text below walks through data of publication PMC3152585 (Dental materials : official publication of the Academy of …, 2011).

Data set [1] deals with matrix-bound endogenous MMPs of dentin. In words: Loss of dry mass of demineralized dentin beams over 30 days. In kind it is biochemical, human. The following applies: for Loss of dry mass (%): mean ± SEM, n=10, buffer control -21.02; for % Inhibition (loss of dry mass): vs buffer control.
Data set [2] deals with recombinant human MMP-9 (rhMMP-9) (Homo sapiens, UniProt P14780). In words: Sensolyte Generic MMP colorimetric assay with soluble rhMMP-9. The following applies: for IC50 (moles/L) for rhMMP-9: from regression of percent inhibition vs alcohol concentration; for IC50 (moles/L) for rhMMP-9 / % Inhibition of soluble rhMMP-9: mean ± SEM, n=5; for % Inhibition of soluble rhMMP-9: alcohol 4.28 M.

The subject of data set [3] is matrix-bound endogenous MMPs of dentin. In words: Solubilization of collagen peptides. In kind it is biochemical, human. The following applies: 30 days, vs buffer control.
Another data set has as its system MMP-2. The following applies: 5 wt% monomeric HEMA, PAGE gels; cited from earlier work.
A short description of another data set: physchem. The following applies: aqueous buffer.
Where [4] appears, read: read-out: % Inhibition of soluble rhMMP-9.

Values after ≈ are worked out from the molar mass of the structure shown. Values joined by “and” are separate entries in the source; they are usually repeats but may differ in a detail not shown here. Equal values may be shown once. Marks after values point to notes of the source that are not given here.

For orientation: inhibition means the drop in the measured response relative to a control, in per cent. For orientation: solubility means the dissolved amount per volume that the medium holds. High values mean a readily soluble substance, low ones a poorly soluble substance. For orientation: IC50 means the midpoint of a concentration-inhibition curve.

Sequence of recombinant human MMP-9 (rhMMP-9) (P14780 107-707 limits assumed): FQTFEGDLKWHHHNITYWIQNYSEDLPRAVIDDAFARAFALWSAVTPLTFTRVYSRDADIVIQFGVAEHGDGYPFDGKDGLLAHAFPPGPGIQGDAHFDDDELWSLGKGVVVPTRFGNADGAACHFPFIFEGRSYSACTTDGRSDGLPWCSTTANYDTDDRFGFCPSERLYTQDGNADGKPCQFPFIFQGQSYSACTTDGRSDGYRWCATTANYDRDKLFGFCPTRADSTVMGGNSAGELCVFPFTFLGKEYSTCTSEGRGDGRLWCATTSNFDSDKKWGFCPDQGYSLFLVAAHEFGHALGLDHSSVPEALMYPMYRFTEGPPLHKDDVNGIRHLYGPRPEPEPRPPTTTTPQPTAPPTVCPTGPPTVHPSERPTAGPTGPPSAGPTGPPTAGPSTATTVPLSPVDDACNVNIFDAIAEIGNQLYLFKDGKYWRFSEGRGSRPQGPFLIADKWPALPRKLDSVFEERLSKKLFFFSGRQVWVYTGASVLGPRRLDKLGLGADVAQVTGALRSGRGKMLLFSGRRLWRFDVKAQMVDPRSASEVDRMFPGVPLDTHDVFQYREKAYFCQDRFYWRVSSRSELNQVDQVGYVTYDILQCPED

As for `OCCCO` [1,3-propanediol], the “Loss of dry mass (%)” value in data set [1] (alcohol 4.28 M) is recorded as -3.22 ± 0.31% (10)^A.
Consider `CCCCCCO` [1-hexanol], for which the inhibition at 170000 µM in data set [2] (setting [4]) was found to be 28.3 ± 0.4%.
Turning to `CCCCCCCCO` [1-octanol], in data set [2], the “IC50 (moles/L) for rhMMP-9” value worked out at 0.3 ± 0.22%^b moles/L. In data set [2] (setting [4]), the inhibition at 170000 µM is 25.4 ± 1.21%.
With `CCCCCO` [1-pentanol], in data set [2] (setting [4]), the inhibition at 860000 µM was determined as 28.5 ± 0.54%.
As to `CCCO` [1-propanol], in data set [1] (alcohol 4.28 M), the “% Inhibition (loss of dry mass)” value is listed as 80.2%. The “% Inhibition (solubilization of HYP)” value in data set [3] (alcohol 4.28 M) is listed as 78.2%. In addition, in data set [2], the “% Inhibition of soluble rhMMP-9” value amounted to 79.7 ± 0.18%^F; the “IC50 (moles/L) for rhMMP-9” value is 2.7 moles/L and 2.7 ± 0.13%^d moles/L.
With `CCC(C)O` (stereo not drawn) [2-butanol], the “% Inhibition (loss of dry mass)” value in data set [1] (alcohol […]) is 80.2%. The “% Inhibition (solubilization of HYP)” value in data set [3] (alcohol […]) is reported as 82.9%. In data set [2], the “% Inhibition of soluble rhMMP-9” value is listed as 78.7 ± 0.94%^F and the “IC50 (moles/L) for rhMMP-9” value came to 0.5 ± 0.04%^b moles/L.
On to `CCCCCC(C)O` (stereo not drawn) [2-heptanol], for which, in data set [2], the “IC50 (moles/L) for rhMMP-9” value worked out at 3.0 ± 0.18%^d moles/L. Also, in data set [2] (setting [4]), the inhibition at 170000 µM came to 13.7 ± 2.33%.
Turning to `CCCCC(C)O` (stereo not drawn) [2-hexanol], the “IC50 (moles/L) for rhMMP-9” value in data set [2] was determined as 1.6 ± 0.09%^c moles/L. Also, the inhibition at 170000 µM in data set [2] (setting [4]) came out at 13.2 ± 0.67%.
Turning to `CCCCCCC(C)O` (stereo not drawn) [2-octanol], the “IC50 (moles/L) for rhMMP-9” value in data set [2] was determined as 2.7 ± 0.18%^d moles/L. Besides, the inhibition at 170000 µM in data set [2] (setting [4]) is 21.5 ± 0.63%.
`CC(C)O` [2-propanol]: in data set [2], the “% Inhibition of soluble rhMMP-9” value turned out to be 52.7 ± 0.18%^D and the “IC50 (moles/L) for rhMMP-9” value turned out to be 4.4 ± 0.13%^e moles/L.
`CCCCC(O)CC` (stereo not drawn) [3-heptanol]: the “IC50 (moles/L) for rhMMP-9” value in data set [2] was 0.5 ± 0.04%^b moles/L. Moreover, the inhibition at 170000 µM in data set [2] (setting [4]) was 17.1 ± 0.54%.
On the same counts, the results for `CCCC(O)CC` (stereo not drawn) [3-hexanol] are 0.4 ± 0.04%^b moles/L and 35.1 ± 1.16%.
Consider `CCCCC(O)CCC` (stereo not drawn) [4-octanol], for which the “IC50 (moles/L) for rhMMP-9” value in data set [2] was found to be 1.1 ± 0.04%^c moles/L. Further, the inhibition at 170000 µM in data set [2] (setting [4]) is 17.7 ± 0.27%.
Turning to `C=C(C)C(=O)OCCO` [HEMA, 2-hydroxyethylmethacrylate], the “% Inhibition (loss of dry mass)” value in data set [1] (0.86 M) amounted to 80.7%; in data set [1] ([…]), 79.1%; in data set [1] (alcohol 4.28 M) it was 80.8%. The “% Inhibition (solubilization of HYP)” value is recorded as 88.1% in data set [3] (0.86 M), 83.6% in data set [3] ([…]) and 85.6% in data set [3] (alcohol 4.28 M). The “Inhibition of MMP-2” value in the data set on MMP-2 was “about 80%”. The molecule further showed a solubility in “physchem” of 4280 mM (≈ 557 mg/mL). Moreover, the IC50 in data set [2] was 100 ± 90 mM. The “Inhibition of rhMMP-9” value in data set [2] (2.2 vol% HEMA, data not shown) is on record as 98%. For the same molecule, the “Inhibition of MMP-9 relative to the same concentration of ethanol” value in data set [2] (compared to ethanol) is recorded as “nineteen times more”.
Take `CCO` [ethanol]: in data set [2], the “% Inhibition of soluble rhMMP-9” value was determined as 14.3 ± 2.06%^A and the “IC50 (moles/L) for rhMMP-9” value came out at 19.6 ± 0.36%^a moles/L.
With `CC(C)(C)O` [tert-butanol], in data set [1] (alcohol 4.28 M), the “Loss of dry mass (%)” value was -3.52 ± 0.28% (10)^A and the “% Inhibition (loss of dry mass)” value is reported as 83.3%.
